Experiments:
[1] = target: Vascular endothelial growth factor receptor 2 (Homo sapiens, UniProt P35968); assay: Inhibition of VEGFR2
Angiopoietin-1 receptor [2] = target: T1, Angiopoietin-1 receptor (Homo sapiens, UniProt Q02763); assay: Inhibition of TIE2
[3] = Clearance in rat at 1 mg/kg, iv; type: ADME, organism-based; set-up: dose 1 mg/kg, route intravenous; details: in vivo
[4] = target: Vascular endothelial growth factor receptor 2 (Mus musculus, UniProt P35918); assay: Inhibition of mouse VEGFR2 autophosphorylation in NIH3T3 cell
Vascular endothelial growth factor receptor 2 (Mus musculus, UniProt P35918), sequence (P35918 whole entry): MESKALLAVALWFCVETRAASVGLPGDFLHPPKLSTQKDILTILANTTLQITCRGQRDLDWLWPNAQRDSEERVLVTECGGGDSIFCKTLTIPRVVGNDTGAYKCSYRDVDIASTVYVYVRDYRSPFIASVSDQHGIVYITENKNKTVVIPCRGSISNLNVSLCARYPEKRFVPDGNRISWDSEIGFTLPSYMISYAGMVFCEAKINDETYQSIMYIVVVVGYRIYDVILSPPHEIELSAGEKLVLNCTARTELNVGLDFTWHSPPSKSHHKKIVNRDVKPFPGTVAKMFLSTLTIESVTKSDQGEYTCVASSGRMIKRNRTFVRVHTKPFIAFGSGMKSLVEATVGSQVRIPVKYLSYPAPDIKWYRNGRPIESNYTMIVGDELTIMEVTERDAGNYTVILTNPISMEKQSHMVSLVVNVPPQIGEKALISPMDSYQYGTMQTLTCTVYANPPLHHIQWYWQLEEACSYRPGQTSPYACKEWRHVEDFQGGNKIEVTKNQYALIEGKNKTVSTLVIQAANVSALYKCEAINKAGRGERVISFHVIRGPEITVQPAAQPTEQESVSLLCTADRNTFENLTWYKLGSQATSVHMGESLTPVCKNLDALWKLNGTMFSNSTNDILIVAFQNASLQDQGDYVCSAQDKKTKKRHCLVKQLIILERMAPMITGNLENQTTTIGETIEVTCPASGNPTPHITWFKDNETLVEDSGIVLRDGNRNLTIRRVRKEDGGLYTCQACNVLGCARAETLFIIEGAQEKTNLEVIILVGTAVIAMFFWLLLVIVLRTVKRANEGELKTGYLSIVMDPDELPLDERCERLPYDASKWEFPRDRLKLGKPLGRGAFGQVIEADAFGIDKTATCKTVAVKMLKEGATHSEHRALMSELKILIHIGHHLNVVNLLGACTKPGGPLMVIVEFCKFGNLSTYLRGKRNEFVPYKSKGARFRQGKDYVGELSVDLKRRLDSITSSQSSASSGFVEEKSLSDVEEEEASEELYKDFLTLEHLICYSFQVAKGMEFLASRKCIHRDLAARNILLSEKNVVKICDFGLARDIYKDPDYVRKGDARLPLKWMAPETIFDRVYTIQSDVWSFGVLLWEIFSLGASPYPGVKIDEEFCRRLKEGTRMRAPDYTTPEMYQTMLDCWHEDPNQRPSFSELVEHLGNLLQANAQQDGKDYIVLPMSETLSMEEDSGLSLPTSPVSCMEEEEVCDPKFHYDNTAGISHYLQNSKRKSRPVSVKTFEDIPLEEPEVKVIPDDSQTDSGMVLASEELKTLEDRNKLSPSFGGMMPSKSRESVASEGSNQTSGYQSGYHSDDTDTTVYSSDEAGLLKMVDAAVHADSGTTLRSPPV

[5] = AUC in rat; type: ADME, organism-based; details: plasma
Angiopoietin-1 receptor [6] = target: T1, Angiopoietin-1 receptor; assay: Inhibition of TIE2 at 300 nM
Angiopoietin-1 receptor [7] = target: T1, Angiopoietin-1 receptor; assay: Inhibition of TIE2 at 1000 nM
[8] = Aqueous solubility at pH 7.4; type: physicochemical; details: aqueous medium
Aorta [9] = assay: Toxicity in rat aortic ring; type: tissue-based
HUVEC [10] = assay: Inhibition of angiopoietin 1-induced chemotaxis of HUVEC cells; type: functional, cell-based; details: Homo sapiens
[11] = Volume of distribution in rat at 1 mg/kg, iv; type: ADME, organism-based; set-up: dose 1 mg/kg, route intravenous; details: in vivo
[12] = Bioavailability in rat at 5 mg/kg, po; type: ADME, organism-based; details: in vivo
[13] = Aqueous solubility at pH 2.0; type: physicochemical; details: aqueous medium
Aorta [14] = assay: Ex vivo antiangiogenic activity in rat aortic ring explant assessed as inhibition of microvessel growth after 8 days; type: functional, tissue-based; details: 192 h
[15] = Cmax in rat at 5 mg/kg, po; type: ADME, organism-based; set-up: dose 5 mg/kg, route oral; details: in vivo
[16] = AUC (0 to t) in rat at 5 mg/kg, po; type: ADME, organism-based; set-up: dose 5 mg/kg, route oral; details: plasma
[17] = Half life in rat at 1 mg/kg, iv; type: ADME, organism-based; set-up: dose 1 mg/kg, route intravenous; details: in vivo
HUVEC [18] = assay: Cytotoxicity against human HUVEC cells; type: cell-based
[19] = AUC (0 to infinity) in rat at 1 mg/kg, iv; type: ADME, organism-based; set-up: time infinity, dose 1 mg/kg, route intravenous; details: plasma
[20] = AUC (0 to infinity) in rat at 5 mg/kg, po; type: ADME, organism-based; set-up: time infinity, dose 5 mg/kg, route oral; details: plasma
[21] = AUC (0 to t) in rat at 1 mg/kg, iv; type: ADME, organism-based; set-up: dose 1 mg/kg, route intravenous; details: plasma
[22] = Tmax in rat at 5 mg/kg, po; type: ADME, organism-based; set-up: dose 5 mg/kg, route oral; details: in vivo

T1 sequence (Q02763 whole entry): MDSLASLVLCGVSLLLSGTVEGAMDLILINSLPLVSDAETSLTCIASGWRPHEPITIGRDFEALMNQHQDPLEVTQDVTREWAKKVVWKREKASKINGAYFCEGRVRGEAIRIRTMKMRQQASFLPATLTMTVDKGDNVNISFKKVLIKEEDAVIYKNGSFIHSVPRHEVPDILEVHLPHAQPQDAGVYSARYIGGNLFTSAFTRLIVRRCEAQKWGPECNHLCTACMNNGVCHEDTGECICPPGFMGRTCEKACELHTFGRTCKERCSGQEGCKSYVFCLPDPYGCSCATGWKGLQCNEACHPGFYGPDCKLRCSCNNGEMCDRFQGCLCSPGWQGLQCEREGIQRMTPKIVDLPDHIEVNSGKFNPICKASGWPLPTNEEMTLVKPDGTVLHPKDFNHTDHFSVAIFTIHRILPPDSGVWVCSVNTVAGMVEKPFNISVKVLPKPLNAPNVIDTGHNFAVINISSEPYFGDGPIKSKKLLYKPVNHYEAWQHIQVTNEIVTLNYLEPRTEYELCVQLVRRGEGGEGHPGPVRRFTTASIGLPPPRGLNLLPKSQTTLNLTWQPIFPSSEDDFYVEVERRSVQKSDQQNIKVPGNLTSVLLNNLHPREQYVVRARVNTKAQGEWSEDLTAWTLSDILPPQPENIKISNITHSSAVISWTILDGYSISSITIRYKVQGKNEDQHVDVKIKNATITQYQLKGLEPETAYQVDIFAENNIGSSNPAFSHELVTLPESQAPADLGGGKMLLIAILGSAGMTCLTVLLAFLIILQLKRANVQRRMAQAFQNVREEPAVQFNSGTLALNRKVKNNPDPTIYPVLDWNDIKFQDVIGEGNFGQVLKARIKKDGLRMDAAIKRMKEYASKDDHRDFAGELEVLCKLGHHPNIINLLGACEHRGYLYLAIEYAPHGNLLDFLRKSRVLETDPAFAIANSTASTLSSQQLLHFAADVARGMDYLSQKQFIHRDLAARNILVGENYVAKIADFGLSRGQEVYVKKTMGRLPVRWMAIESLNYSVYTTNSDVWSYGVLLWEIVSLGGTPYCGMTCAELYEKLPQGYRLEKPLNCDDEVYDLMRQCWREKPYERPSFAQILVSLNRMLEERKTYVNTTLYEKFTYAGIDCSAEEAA
Vascular endothelial growth factor receptor 2 (Homo sapiens, UniProt P35968), sequence (P35968 whole entry): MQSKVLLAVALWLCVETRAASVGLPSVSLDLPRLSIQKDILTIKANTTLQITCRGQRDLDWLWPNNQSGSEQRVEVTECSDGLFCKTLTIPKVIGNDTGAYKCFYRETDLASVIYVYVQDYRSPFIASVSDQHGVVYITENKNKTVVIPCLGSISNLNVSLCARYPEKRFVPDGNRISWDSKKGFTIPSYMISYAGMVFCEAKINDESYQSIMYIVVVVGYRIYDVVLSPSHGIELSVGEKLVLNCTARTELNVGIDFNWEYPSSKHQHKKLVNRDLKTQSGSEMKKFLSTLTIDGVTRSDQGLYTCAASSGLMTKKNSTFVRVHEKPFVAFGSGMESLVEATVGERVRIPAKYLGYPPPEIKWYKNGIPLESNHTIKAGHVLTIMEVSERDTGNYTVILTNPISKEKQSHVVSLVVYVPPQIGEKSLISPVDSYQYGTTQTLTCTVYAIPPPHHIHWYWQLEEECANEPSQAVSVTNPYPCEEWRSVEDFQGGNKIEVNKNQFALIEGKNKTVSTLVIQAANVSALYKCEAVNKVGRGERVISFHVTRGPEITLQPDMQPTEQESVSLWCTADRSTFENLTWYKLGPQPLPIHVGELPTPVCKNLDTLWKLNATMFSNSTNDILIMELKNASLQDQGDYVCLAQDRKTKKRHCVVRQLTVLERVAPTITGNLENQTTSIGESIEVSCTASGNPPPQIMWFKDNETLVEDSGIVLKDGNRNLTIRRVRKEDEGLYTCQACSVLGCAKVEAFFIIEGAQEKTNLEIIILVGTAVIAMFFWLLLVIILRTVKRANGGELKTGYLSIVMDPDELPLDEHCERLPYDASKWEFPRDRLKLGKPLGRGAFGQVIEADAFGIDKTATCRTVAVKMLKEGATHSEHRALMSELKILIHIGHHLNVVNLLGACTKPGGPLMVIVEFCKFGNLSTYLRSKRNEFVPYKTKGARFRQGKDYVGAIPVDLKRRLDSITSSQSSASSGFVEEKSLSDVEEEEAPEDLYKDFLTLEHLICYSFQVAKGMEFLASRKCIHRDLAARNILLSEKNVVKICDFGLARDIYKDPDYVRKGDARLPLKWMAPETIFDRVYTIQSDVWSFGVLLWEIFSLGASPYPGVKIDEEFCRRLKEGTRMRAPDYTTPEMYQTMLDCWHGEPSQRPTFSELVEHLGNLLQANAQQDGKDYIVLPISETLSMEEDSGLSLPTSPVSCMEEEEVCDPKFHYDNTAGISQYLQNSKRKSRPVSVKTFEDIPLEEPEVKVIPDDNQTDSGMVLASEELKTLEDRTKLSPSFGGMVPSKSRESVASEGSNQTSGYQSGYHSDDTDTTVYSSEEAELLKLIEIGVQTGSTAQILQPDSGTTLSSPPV

SMILES | IC50 [1] [nM] | IC50 (Angiopoietin-1 receptor [2]) [nM] | also measured
Cn1cc2c(n1)CCc1c-2c2c(c3c1[nH]c1ccccc13)CNC2=O | 16 | 1360 | –
Cc1ccsc1C(=O)c1ccc2c(c1)c1c3c(c4c(c1n2CC(C)C)CCc1nn(C)cc1-4)C(=O)NC3 | 10 | 5 | clearance [3]: 72 mL/min/kg; IC50 [4]: < 10 nM; AUC [5]: 261 ng·h/mL
Cn1cc2c(n1)CCc1c-2c2c(c3c1[nH]c1ccc(C(=O)c4cccs4)cc13)CNC2=O | 2 | 136 | –
CC(=O)c1ccc2c(c1)c1c3c(c4c(c1n2CC(C)C)CCc1nn(C)cc1-4)C(=O)NC3 | 21 | 83 | –
CC(=O)c1ccc2c(c1)c1c3c(c4c(c1n2C(C)C)CCc1nn(C)cc1-4)C(=O)NC3 | 75 | 726 | –
CCn1c2ccccc2c2c3c(c4c(c21)CCc1nn(C)cc1-4)C(=O)NC3 | 15 | 1100 | –
CCCn1c2ccc(C(=O)c3cccs3)cc2c2c3c(c4c(c21)CCc1nn(C)cc1-4)C(=O)NC3 | 5 | 26 | –
CCCCn1c2ccc(C(C)=O)cc2c2c3c(c4c(c21)CCc1nn(C)cc1-4)C(=O)NC3 | 26 | 300 | inhibition (Angiopoietin-1 receptor [6]): 50%
CC(C)Cn1c2ccc(C(=O)c3sccc3Br)cc2c2c3c(c4c(c21)CCc1nn(C)cc1-4)C(=O)NC3 | 25 | 15 | clearance [3]: 138 mL/min/kg; IC50 [4]: < 10 nM; AUC [5]: 123 ng·h/mL
CC(=O)c1ccc2c(c1)c1c3c(c4c(c1n2C)CCc1nn(C)cc1-4)C(=O)NC3 | 10 | > 10000 | –
CC(=O)c1ccc2[nH]c3c4c(c5c(c3c2c1)CNC5=O)-c1cn(C)nc1CC4 | 35 | > 1000 | inhibition (Angiopoietin-1 receptor [7]): 28%

Further compounds by falling IC50 [1], results first:

IC50 [1] [nM] | IC50 (Angiopoietin-1 receptor [2]) [nM] | SMILES | also measured
17 | 372 | CC(C)Cn1c2ccccc2c2c3c(c4c(c21)CCc1nn(C)cc1-4)C(=O)NC3 | –
16 | 1360 | CC(C)OCc1ccc2c(c1)c1c3c(c4c(c1n2CCCOC(=O)CN(C)C)Cc1ccccc1-4)C(=O)NC3 [CEP-7055] | –
16 | 136 | CCCn1c2ccccc2c2c3c(c4c(c21)CCc1nn(C)cc1-4)C(=O)NC3 | –
15 | 24 | CC(C)n1c2ccc(C(=O)c3cccs3)cc2c2c3c(c4c(c21)CCc1nn(C)cc1-4)C(=O)NC3 | –
13 | 1000 | CCn1c2ccc(C(C)=O)cc2c2c3c(c4c(c21)CCc1nn(C)cc1-4)C(=O)NC3 | inhibition (Angiopoietin-1 receptor [7]): 50%
13 | 63 | CC(C)Cn1c2ccc(C(=O)c3ccsc3)cc2c2c3c(c4c(c21)CCc1nn(C)cc1-4)C(=O)NC3 | –
11 | 43 | Cc1csc(C(=O)c2ccc3c(c2)c2c4c(c5c(c2n3CC(C)C)CCc2nn(C)cc2-5)C(=O)NC4)c1 | IC50 [4]: > 50 nM
8 | 58 | CC(C)Cn1c2ccc(C(=O)c3ccoc3)cc2c2c3c(c4c(c21)CCc1nn(C)cc1-4)C(=O)NC3 | –
7 | 13 | CC(C)Cn1c2ccc(C(=O)c3sccc3Cl)cc2c2c3c(c4c(c21)CCc1nn(C)cc1-4)C(=O)NC3 | solubility [8]: < 1 µg/mL; Activity (Aorta [9]): Non-toxic; Activity (HUVEC [10]): Dose-dependent effect; clearance [3]: 12 mL/min/kg; Vd [11]: 1.4 L/kg; bioavailability [12]: 69%; solubility [13]: < 1 µg/mL; EC50 (Aorta [14]): 20 nM; Cmax [15]: 842 ng/mL; AUC(0-t) [16]: 3330 ng·h/mL; half-life [17]: 1.35 h; IC50 [4]: 10 nM; Activity (HUVEC [18]): Non-toxic; AUC(0-inf) [19]: 1490 ng·h/mL; AUC(0-inf) [20]: 5140 ng·h/mL; AUC(0-t) [21]: 1440 ng·h/mL; Tmax [22]: 3.33 h
6 | 20 | CC(C)Cn1c2ccc(C(=O)c3cccs3)cc2c2c3c(c4c(c21)CCc1nn(C)cc1-4)C(=O)NC3 | solubility [8]: < 1 µg/mL; Activity (Aorta [9]): Non-toxic; Activity (HUVEC [10]): Dose-dependent effect; clearance [3]: 2.36 mL/min/kg; Vd [11]: 0.52 L/kg; bioavailability [12]: 12%; solubility [13]: < 1 µg/mL; EC50 (Aorta [14]): 20 nM; Cmax [15]: 638 ng/mL; AUC(0-t) [16]: 2820 ng·h/mL; half-life [17]: 2.32 h; IC50 [4]: 10 nM; Activity (HUVEC [18]): Non-toxic; AUC(0-inf) [19]: 6650 ng·h/mL; AUC(0-inf) [20]: 4130 ng·h/mL; AUC(0-t) [21]: 5680 ng·h/mL; Tmax [22]: 4 h
4 | 72 | CC(C)Cn1c2ccc(C(=O)c3ccco3)cc2c2c3c(c4c(c21)CCc1nn(C)cc1-4)C(=O)NC3 | –
3 | 272 | CCCn1c2ccc(C(C)=O)cc2c2c3c(c4c(c21)CCc1nn(C)cc1-4)C(=O)NC3 | –
1 | 43 | CCn1c2ccc(C(=O)c3cccs3)cc2c2c3c(c4c(c21)CCc1nn(C)cc1-4)C(=O)NC3 | –
